Blank lines part the entries; values can stand above or below the compound they belong to.
What was measured:
[1] = in man; cited from earlier work
[2] = hypertensive patients; cited from earlier work
neointimal formation = conditions: cited from earlier work

Structure (SMILES): CCCC[C@@H](NC(=O)[C@@H](Cc1cn(C(=O)OC)c2ccccc12)NC(=O)[C@H](CC(C)(C)C)NC(=O)N1[C@H](C)CCC[C@@H]1C)C(=O)O [BQ-788]
peripheral resistance [1]: increase peripheral resistance

Structure (SMILES): COc1ccccc1Oc1c(NS(=O)(=O)c2ccc(C(C)(C)C)cc2)nc(-c2ncccn2)nc1OCCO [Bosentan]
blood pressure [2]: decreased blood pressure

melting point: 187.6 °C
Structure (SMILES): COc1ccccc1Oc1c(OC)nn(C)c1NS(=O)(=O)c1ccc(C(C)(C)C)cc1 [Example 107, 4-(tert-Butyl)-N-[3-methoxy-4-(2-methoxyphenoxy)-1-methyl-1H-pyrazol-5-yl]benzenesulfonamide]

Structure (SMILES): CCCOc1ccc2c(c1)[C@@H](c1ccc(OC)cc1OCC(=O)O)[C@H](C(=O)O)[C@H]2c1ccc2c(c1)OCO2 [SB-209670]
reduction in neointimal formation relative to control animals (neointimal formation): 50%

Reference: patent US6962923B2, “Pyrazole compositions” (Pfizer Inc., priority 1999, dated 2005)
